Experimental data published in patent publication US20220257500A1, “USE OF A HYDRO-ALCOHOLIC EXTRACT OF EVENING PRIMROSE FOR HYDRATING SKIN AND INCREASING BARRIER FUNCTION” (L'OREAL, priority 2019, published 2022).

How the values were obtained:
Assay type in all cases: cell-based
Conditions in all cases: normal human epidermal keratinocytes, 24 h, normalised to GAPDH
FLG2 (filaggrin 2) = assay: RT-qPCR analysis of gene expression, FLG2 transcript
Protocol: (§1) Normal, human epidermal keratinocytes were used to conduct the study. Normal, human epidermal keratinocytes were seeded in 48-well culture plates and cultured in culture medium for 3 days at 37° C. under 5% CO2 with renewal of the culture medium after the first 24 hours of culture. After incubation, the culture medium was replaced by test medium (supplemented with 1.5 mM CaCl2) containing or not containing (control) the compounds to be tested, and the cells were incubated for 24 hours. All conditions were performed with n=2. After treatment, the culture media were removed and the cells rinsed twice with PBS (w/o CaCl2, w/o MgCl2). Total RNAs were isolated using a magnetic bead extraction kit, following the manufacturer's instructions (MagMAX™-96 Total RNA Isolation Kit, Ambion). Quantification of RNAs and quality control thereof were analysed using Labchip GX (Perkin Elmer). Expression of the selected transcripts was analysed by two-step quantitative PCR. First, the cDNAs were retro-transcribed from the RNAs using the Quantitect® Reverse transcription kit (QIAGEN) following the manufacturer's instructions. The quantitative PCR experiments were performed using a LightCycler® 480 Real-Time PCR System in 384-well plate (Roche) following the incorporation technique of SYBR®Green (Roche) (Table 4). The results are expressed as fold change (Fc) as compared with the non-treated control, after normalising relative expressions in relation to expression of a housekeeping gene (GAPDH). The expression of a gene is considered to be stimulated when it is multiplied at least by 1.5.

[1] = tested on: LCE3D (late cornified envelope 3D); assay: RT-qPCR analysis of gene expression, LCE3D transcript
Protocol: as §1

[2] = tested on: SPRR1A (small proline-rich protein 1A); assay: RT-qPCR analysis of gene expression, SPRR1A transcript
Protocol: as §1

CNFN (cornifelin) = assay: RT-qPCR analysis of gene expression, CNFN transcript
Protocol: as §1

| Compound | FLG2 Fold change vs Control (Fc) (FLG2 (filaggrin 2); 0.004 mg/mL) | LCE3D Fold change vs Control (Fc) ([1]; 0.004 mg/mL) | SPRR1A Fold change vs Control (Fc) ([2]; 0.004 mg/mL) | CNFN Fold change vs Control (Fc) (CNFN (cornifelin); 0.004 mg/mL) | FLG2 Fold change vs Control (Fc) (FLG2 (filaggrin 2); 0.1 mg/mL) | LCE3D Fold change vs Control (Fc) ([1]; 0.1 mg/mL) | SPRR1A Fold change vs Control (Fc) ([2]; 0.1 mg/mL) | CNFN Fold change vs Control (Fc) (CNFN (cornifelin); 0.1 mg/mL) |
| --- | --- | --- | --- | --- | --- | --- | --- | --- |
| oenothein B | 1.36 fold change | 0.87 fold change | 1.07 fold change | 0.76 fold change |  |  |  |  |
| O=c1c(O[C@@H]2O[C@H](CO)[C@@H](O)[C@H](O)[C@H]2O)c(-c2ccc(O)c(O)c2)oc2cc(O)cc(O)c12 [Isoquercitrin, isoquercitrin] |  |  |  |  | 0.9 fold change | 0.47 fold change | 0.57 fold change | 0.54 fold change |
| O=c1c(O[C@@H]2O[C@H](CO)[C@H](O)[C@H](O)[C@H]2O)c(-c2ccc(O)c(O)c2)oc2cc(O)cc(O)c12 [Hyperoside, hyperoside] |  |  |  |  | 0.5 fold change | 0.61 fold change | 0.64 fold change | 0.61 fold change |
| O=c1c(O)c(-c2ccc(O)c(O)c2)oc2cc(O)cc(O)c12 [Quercetin, quercetin] |  |  |  |  | 0.12 fold change | 0.2 fold change | 0.13 fold change | 0.13 fold change |
| O=c1oc2c(O)c(O)cc3c(=O)oc4c(O)c(O)cc1c4c23 [Ellagic acid, ellagic acid] | 1.22 fold change | 0.51 fold change | 0.96 fold change | 0.64 fold change |  |  |  |  |
| O=C(O)[C@H]1O[C@@H](Oc2cc(O)c3c(=O)cc(-c4ccc(O)c(O)c4)oc3c2)[C@H](O)[C@@H](O)[C@@H]1O [Luteoline-7-O-glucuronide, luteoline-7-O-glucuronide] |  |  |  |  | 0.4 fold change | 0.44 fold change | 0.41 fold change | 0.42 fold change |
